# Source: PMC6906431, “Selective small molecule PARG inhibitor causes replication fork stalling and cancer cell death” (Nature Communications, 2019)
# Values joined by “and” are separate entries in the source; they are usually repeats but may differ in a detail not shown here. Equal values may be shown once.
# Key:
# MCF-7 cells = experiment: Clonogenic survival assay; type: cell-based, human
# Method: (§1) Fig. 6 Selective inhibition of PARG by xanthine derivative JA2131. a Clonogenic survival assays of PC3, MDA-MB-231, and MCF-7 cells treated with PARGi. Cells were treated with either DMSO or 10 µM JA2131 for 2 h, irradiated with 3 Gy (MDA-MB-231 and MCF-7), 7 Gy (PC3) IR and grown for ~2 weeks, then colonies were fixed with methanol and stained with crystal violet. The results of three independent experiments are shown. Error bars = the standard error of the mean (SEM). b dose-response of JA2131 in MDA-MB-231 cells with and without IR. Cells were treated with designated concentrations of JA2131 for 2 h and then either left untreated or exposed to 3 Gy IR and allowed to recover for 1 h before lysis. Total protein was immunoblotted with anti-PAR antibody (upper panel), stripped and reprobed with anti-PCNA as a loading control. c MDA-MB-231 cells with stable scrambled shRNA (WT) or stable PARG shRNA, knockdown (KD), were treated with 5 μM JA2131 for 2 h, lysed and then total lysates were immunoblotted for anti-PAR (upper panel) followed by anti-PARG (upper middle panel), anti-PARP1 (lower middle panel) and anti-actin (bottom panel) antibody. […] Stable cells with scramble shRNA (control) and shPARG (PARG-KD) cells were treated with an increasing concentration of JA2131 for growth inhibitory IC50 determination. The data was normalized against 100% survival at the lowest inhibitor concentration. Error bars show the percent coefficient of variation. Equivalent concentrations of DMSO were used as a negative control. e The cytotoxicity of JA2131 along with PDD, Veliparib and Doxorubicin against MRC-5 cells. Error bars show the percent coefficient of variation. f CETSA for in-cell JA2131 target engagement. Normalized anti-PARG western blot intensities of three independent experiments were fitted as above and the estimated aggregation temperature (Tagg) is shown in the tabulated insert. Source Data are provided as a Source Data file.
# (§2) PC3, MDA-MB-231 cells were maintained in RPMI 1640, MCF-7 cells in Eagle’s Minimum Essential Medium (EMEM), MRC-5 cells in Eagle’s Minimum Essential Medium and Hela and U2OS cells in Dulbecco’s modified Eagle’s high glucose medium (DMEM) supplemented with 10% (vol/vol) fetal bovine serum (FBS) and 1% antibiotic/antimycotic (Lonza) in a humidified incubator with 10% CO2. All cell lines were purchased from ATCC and regularly checked for mycoplasma and cell authentication. SUM 149PT cells were cultured in F-12 Hams (Gibco) supplemented with 5% fetal bovine serum, insulin, and hydrocortisone. Colony formation assays were carried out in 6-well plates, 500 cells were used per well and following designated treatment, and colonies were grown for 2 weeks. Cells were fixed with methanol (100%), stained with crystal violet and analyzed using a GelCount instrument (Oxford Optronix Ltd). Crystal Violet C6158 was purchased from Sigma. PARG knockdown cells were generated by infecting MDA-MB-231 cells with shPARG lentiviral particles (sc-106355-V, Santa Cruz Biotechnology), which contain a pool of three shRNA plasmids. After 24 h infection, 3 µg/ml puromycin (Invitrogen) was added and antibiotic-resistant cells were further expanded and used for experimentation. Sequence-1; hairpin sequence: […], sense: […]tt, Antisense: […]tt. Sequence-2; hairpin sequence, […]-[…], sense: […]tt, antisense: […]tt. Sequence-3; hairpin sequence: […]-[…], sense: […]tt, antisense: […]-GGUUUCCtt. Control cells were generated using the same process except that scramble lentiviral particles with scrambled sequences were used (sc-108080).
# (§3) Supplementary Fig. 8: Clonogenic survival of cells in the presence of PARGi and PARPi (a)
# (§4) Clonogenic survival of PC3 cells in response to indicated compounds. ( b) Clonogenic survival of
# (§5) MDA-MB-231 cells in response to i ndicated compounds. (c) Clonogenic survival of MCF -7 cells
# (§6) in response to indicated compounds. […]
# PC3 cells [1] = experiment: Clonogenic survival assay; type: cell-based, human; details: PC3
# Method: as §1, §2, §3, §4, §5, §6
# A172 glioblastoma cells = experiment: Sulforhodamine B (SRB) cytotoxicity assay
# Method: (§7) Normalized % viabilities are plotted against log concentration. Error bars show the percent coefficient of variation. […] Mann-Whitney test was used to generate the p-value. The DNA spread assay is the representation of two independently repeated experiments. Source Data are provided as a Source Data file.
# (§8) Cells were plated in 96-well plates, treated as designated in reduced 5% FBS and fixed with trichloroacetic acid after 72 h, as previously described by[43]. […] Colorimetric or fluorescence analysis was performed in a FlexStation 3, using SoftMax Pro 7.0, Molecular Devices. Normalized graphs were generated with Prism 8 software, non-linear 4-parameter data fitting was performed for IC50 calculation.
# PC3 cells [2] = experiment: Sulforhodamine B (SRB) cytotoxicity assay; details: 72 h, without IR
# MDA-MB-231 cells = experiment: Clonogenic survival assay; type: cell-based, human; details: MDA-MB-231
# Method: as §1, §2, §3, §4, §5, §6
# [3] = Sulforhodamine B (SRB) cytotoxicity assay; details: human, PC3 cells, Viability; for viability at 72 h, 1.95 µM: log [concentration] μM 0.290702; for viability at 72 h, 3.91 µM: log [concentration] μM 0.591732; for viability at 72 h, 7.81 µM: log [concentration] μM 0.892818; for viability at 72 h, 15.63 µM: log [concentration] μM 1.19382; for viability at 72 h, 31.25 µM: log [concentration] μM 1.49485; for viability at 72 h, 62.5 µM: log [concentration] μM 1.79588; for viability at 72 h, 125 µM: log [concentration] μM 2.09691; for viability at 72 h, 250 µM: log [concentration] μM 2.39794; for viability at 72 h, 500 µM: log [concentration] μM 2.69897; for viability at 72 h, 1000 µM: log [concentration] μM 3; for viability at 72 h, 2000 µM: log [concentration] μM 3.30103
# [4] = Sulforhodamine B (SRB) cytotoxicity assay; type: cell-based, human; details: human, MRC-5 cells
# Method: as §1
# [5] = Sulforhodamine B (SRB) cytotoxicity assay; details: human, A172 glioblastoma cells
# Method: as §7, §8
smiles,measurement,setting,value
Cn1c(=S)c2[nH]c(SCCN3CCOCC3)nc2n(C)c1=O [JA-2131],"colony count (clonogenic survival, raw replicate data, Supplementary Figure 8)","MCF-7 cells; Experiment-1, replicates 1-6",184 and 217 and 183 and 124 and 178 and 153
same,"colony count (clonogenic survival, raw replicate data, Supplementary Figure 8)","MCF-7 cells; Experiment-2, replicates 1-6",141 and 190 (2×) and 218 and 209 and 269
same,"colony count (clonogenic survival, raw replicate data, Supplementary Figure 8)","MCF-7 cells; Experiment-3, replicates 1-6",154 and 188 and 126 and 153 and 169 and 142
same,"colony count (clonogenic survival, raw replicate data, Supplementary Figure 8)","PC3 cells [1]; Experiment-1, replicates 1-6",191 and 210 and 213 and 170 and 222 and 223
same,"colony count (clonogenic survival, raw replicate data, Supplementary Figure 8)","PC3 cells [1]; Experiment-2, replicates 1-6",174 and 164 and 144 and 181 and 152 and 125
same,"colony count (clonogenic survival, raw replicate data, Supplementary Figure 8)","PC3 cells [1]; Experiment-3, replicates 1-6",164 and 128 and 108 and 141 and 148 and 123
[NH2][Pt]1([NH2])[O]CC(=O)[O]1 [Nedaplatin],IC50,A172 glioblastoma cells; 72 h,67.6 ± 46.5 µM
same,Viability,"A172 glioblastoma cells; 72 h, log [concentration] μM 0.291",99.176%
same,Viability,"A172 glioblastoma cells; 72 h, log [concentration] μM 0.592",95.055%
same,Viability,"A172 glioblastoma cells; 72 h, log [concentration] μM 0.893",88.736%
same,Viability,"A172 glioblastoma cells; 72 h, log [concentration] μM 1.495",69.505%
same,Viability,"A172 glioblastoma cells; 72 h, log [concentration] μM 1.796",60.165%
same,Viability,"A172 glioblastoma cells; 72 h, log [concentration] μM 2.097",45.055%
same,Viability,"A172 glioblastoma cells; 72 h, log [concentration] μM 2.398",21.154%
same,Viability,"A172 glioblastoma cells; 72 h, log [concentration] μM 2.699",18.681%
same,Viability,"A172 glioblastoma cells; 72 h, log [concentration] μM 3",18.681%
same,Viability,"A172 glioblastoma cells; 72 h, log [concentration] μM -0.01",107.967%
same,Viability,"A172 glioblastoma cells; 72 h, log [concentration] μM -0.312",100%
same,IC50,PC3 cells [2],4.98 ± 0.2 µM
same,Viability,PC3 cells [2]; log [concentration] μM 0.291,99.072%
same,Viability,PC3 cells [2]; log [concentration] μM 0.592,89.849%
same,Viability,PC3 cells [2]; log [concentration] μM 0.893,9.664%
same,Viability,PC3 cells [2]; log [concentration] μM 1.194,8.121%
same,Viability,PC3 cells [2]; log [concentration] μM 1.495,6.671%
same,Viability,PC3 cells [2]; log [concentration] μM 1.796,7.309%
same,Viability,PC3 cells [2]; log [concentration] μM -0.01,100%
"O=C(c1cc(Cc2n[nH]c(=O)c3ccccc23)ccc1F)N1CCN(C(=O)C2CC2)CC1 [Olaparib, reference compound]","colony count (clonogenic survival, raw replicate data, Supplementary Figure 8)","MDA-MB-231 cells; Experiment-1, replicates 1-6",0 and 1 (2×) and 2 (2×) and 3
same,"colony count (clonogenic survival, raw replicate data, Supplementary Figure 8)","MDA-MB-231 cells; Experiment-2, replicates 1-6",1 (3×) and 2 (2×) and 3
same,"colony count (clonogenic survival, raw replicate data, Supplementary Figure 8)","MDA-MB-231 cells; Experiment-3, replicates 1-6",2 and 1 (3×) and 4 and 3
same,"colony count (clonogenic survival, raw replicate data, Supplementary Figure 8)","MCF-7 cells; Experiment-1, replicates 1-6",14 and 16 and 15 and 5 and 13 and 26
same,"colony count (clonogenic survival, raw replicate data, Supplementary Figure 8)","MCF-7 cells; Experiment-2, replicates 1-6",25 and 5 (2×) and 4 and 1 and 2
same,"colony count (clonogenic survival, raw replicate data, Supplementary Figure 8)","MCF-7 cells; Experiment-3, replicates 1-6",18 (2×) and 15 and 17 and 16 and 5
same,"colony count (clonogenic survival, raw replicate data, Supplementary Figure 8)","PC3 cells [1]; Experiment-1, replicates 1-6",5 and 10 and 21 and 13 and 39 and 16
same,"colony count (clonogenic survival, raw replicate data, Supplementary Figure 8)","PC3 cells [1]; Experiment-2, replicates 1-6",6 (3×) and 1 and 0 and 11
same,"colony count (clonogenic survival, raw replicate data, Supplementary Figure 8)","PC3 cells [1]; Experiment-3, replicates 1-6",0 (2×) and 3 (3×) and 1
same,"viability at 72 h, 1.95 µM",[3]; +IR 7.0 Gy,100%
same,"viability at 72 h, 3.91 µM",[3]; +IR 7.0 Gy,101%
same,"viability at 72 h, 7.81 µM",[3]; +IR 7.0 Gy,101%
same,"viability at 72 h, 15.63 µM",[3]; +IR 7.0 Gy,99.1%
same,"viability at 72 h, 31.25 µM",[3]; +IR 7.0 Gy,79.9%
same,"viability at 72 h, 62.5 µM",[3]; +IR 7.0 Gy,52.4%
same,"viability at 72 h, 125 µM",[3]; +IR 7.0 Gy,32.6%
same,"viability at 72 h, 250 µM",[3]; +IR 7.0 Gy,16.5%
same,"viability at 72 h, 500 µM",[3]; +IR 7.0 Gy,11.1%
same,"viability at 72 h, 1000 µM",[3]; +IR 7.0 Gy,11.4%
same,"viability at 72 h, 2000 µM",[3]; +IR 7.0 Gy,10.8%
same,"viability at 72 h, 1.95 µM",[3]; -IR,100%
same,"viability at 72 h, 3.91 µM",[3]; -IR,102%
same,"viability at 72 h, 7.81 µM",[3]; -IR,94.4%
same,"viability at 72 h, 15.63 µM",[3]; -IR,77.7%
same,"viability at 72 h, 31.25 µM",[3]; -IR,53.3%
same,"viability at 72 h, 62.5 µM",[3]; -IR,34.7%
same,"viability at 72 h, 125 µM",[3]; -IR,20.2%
same,"viability at 72 h, 250 µM",[3]; -IR,9.43%
same,"viability at 72 h, 500 µM",[3]; -IR,5.75%
same,"viability at 72 h, 1000 µM",[3]; -IR,6.34%
same,"viability at 72 h, 2000 µM",[3]; -IR,6.26%
C[C@]1(c2nc3c(C(N)=O)cccc3[nH]2)CCCN1 [Veliparib],"viability at 72 h, 1.95 µM",[4]; log [concentration] μM 0.29,90.5%
same,"viability at 72 h, 3.89 µM",[4]; log [concentration] μM 0.59,94.5%
same,"viability at 72 h, 7.76 µM",[4]; log [concentration] μM 0.89,86%
same,"viability at 72 h, 15.5 µM",[4]; log [concentration] μM 1.19,85.3%
same,"viability at 72 h, 30.9 µM",[4]; log [concentration] μM 1.49,89%
same,"viability at 72 h, 63.1 µM",[4]; log [concentration] μM 1.8,77.6%
same,"viability at 72 h, 126 µM",[4]; log [concentration] μM 2.1,70.3%
same,"viability at 72 h, 251 µM",[4]; log [concentration] μM 2.4,58.2%
same,"viability at 72 h, 501 µM",[4]; log [concentration] μM 2.7,34.2%
same,"viability at 72 h, 0.977 µM",[4]; log [concentration] μM -0.01,89.2%
same,"viability at 72 h, 0.49 µM",[4]; log [concentration] μM -0.31,90.8%
same,"viability at 72 h, 0.245 µM",[4]; log [concentration] μM -0.61,100%
same,IC50,"A172 glioblastoma cells; Homo sapiens, A 172, 72 h",153 ± 44.2 µM
same,"viability at 72 h, 0.244 µM",[5],100%
same,"viability at 72 h, 0.488 µM",[5],104%
same,"viability at 72 h, 0.977 µM",[5],102%
same,"viability at 72 h, 1.95 µM",[5],106%
same,"viability at 72 h, 3.91 µM",[5],101%
same,"viability at 72 h, 7.82 µM",[5],104%
same,"viability at 72 h, 15.6 µM",[5],98.6%
same,"viability at 72 h, 31.3 µM",[5],94.1%
same,"viability at 72 h, 62.5 µM",[5],88.5%
same,"viability at 72 h, 125 µM",[5],69.1%
same,"viability at 72 h, 250 µM",[5],27.2%
same,"viability at 72 h, 500 µM",[5],15.4%
